In patent US8722376B2, “Firefly luciferase” (Olympus Corporation, priority 2011, dated 2014):

Biological target: T1, GL3 (luciferase derived from a known firefly) (Photinus pyralis, UniProt P08659, K549A/L550V/N119G/N50D/S548I)
T1 construct: measured as purified protein in a similar manner to SP1
Assay: Km of GL3 luciferase (luminescence kinetic analysis)
Type: biochemical
Conditions: read-out: Km for ATP; 0.1 M Tris-HCl (pH 8.0), D-luciferin, MgSO4; measured in a similar manner

T1 sequence (P08659 whole entry N50D/N119G/S548I/K549A/L550V): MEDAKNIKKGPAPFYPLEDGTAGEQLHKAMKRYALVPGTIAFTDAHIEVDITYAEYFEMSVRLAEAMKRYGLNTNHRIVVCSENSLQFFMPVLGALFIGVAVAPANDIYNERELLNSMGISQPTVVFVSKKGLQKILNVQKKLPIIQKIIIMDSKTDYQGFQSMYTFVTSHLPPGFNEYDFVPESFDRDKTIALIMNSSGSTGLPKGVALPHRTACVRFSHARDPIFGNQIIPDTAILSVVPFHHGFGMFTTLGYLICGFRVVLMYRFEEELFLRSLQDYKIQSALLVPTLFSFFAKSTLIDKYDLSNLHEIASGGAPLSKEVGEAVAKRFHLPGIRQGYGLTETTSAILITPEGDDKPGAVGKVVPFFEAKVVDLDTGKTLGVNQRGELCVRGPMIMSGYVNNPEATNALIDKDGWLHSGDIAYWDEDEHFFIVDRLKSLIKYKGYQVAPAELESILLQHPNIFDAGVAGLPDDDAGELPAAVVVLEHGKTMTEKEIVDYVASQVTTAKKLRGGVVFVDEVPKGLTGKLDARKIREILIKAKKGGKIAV

Nc1ncnc2c1ncn2[C@@H]1O[C@H](COP(=O)(O)OP(=O)(O)OP(=O)(O)O)[C@@H](O)[C@H]1O [ATP]
Km: 71.3 µM
